Assay results published in publication PMC8126241, “Active Components from Cassia abbreviata Prevent HIV-1 Entry by Distinct Mechanisms of Action” (International Journal of Molecular Sciences, 2021).
Read-outs that look alike come from different tables or passages of the source.

Key:
[1] = system: HIV-1 gp120 / CD4 binding; experiment: CD4-gp120 interaction assay (ELISA); settings: in-house ELISA
Experimental: Human soluble CD4 (sCD4) was immobilized in a 96-well plate by adding 100 ng sCD4 (R&D Systems, Belgium) in 100 μL PBS per well and incubated at 4 °C. After 24 h, the CD4 coated plate was washed with 1% BSA-PBS and blocked by adding 100μL 5% BSA-PBS per well for 1 h at 4 °C. The coated plate was then washed and incubated with or without drugs for 1 h at 4 °C. After washing, 100 ng HIV-1 gp120 protein (Fitzgerald, Acton, MA, USA) was added into the plate and kept for 1 h at 4 °C. The plate was washed, and anti-HIV-1 gp120 (Aalto Bio Reagents, Dublin, Ireland) (100 ng/100 μL PBS) was added. After 1 h, the plate was washed and anti-sheep HRP (Sigma, Belgium) (100 ng/100 μL PBS) was added. After 1 h incubation at 4 °C, 100 μL o-phenylenediamine dihydrochloride (OPD) (Thermo Fisher, Asse, Belgium) was added and incubated for 20 min in dark. One hundred microliters 0.5M H2SO4 was finally added to stop the reaction. OD492 and OD630 were measured by POLARstart Omega Plate Reader. OD492 − OD630 was calculated.

[2] = system: HIV-1 fusion; experiment: Fusion assay, HeLa-ENV-Lai with HeLa-P4-CXCR4-LTRLacZ cells; assay type: cell-based; settings: Figure 8A
Experimental: Fusion inhibition was evaluated as previously described. Briefly, HeLa-ENV-Lai cells were pre-incubated with or without drugs for 2 h and added to HeLa-P4-CXCR4-LTRLacZ cells which were placed in a 96-well plate 1 day before. After 24 h, cells were washed with PBS and then incubated with 50 μL containing 0.5% NP-40 (Sigma, Belgium) for 15 min at room temperature. Fifty microliters chlorophenol red-β-D-galactopyranoside (CPRG) reagent (Roche, Sigma-Aldrich, Liège, Belgium) was then added into the plate. After 30 min incubation at room temperature in dark, β−galactosidase was assessed by measuring OD562 of the cells via POLARstar Omega plate reader (BMG Labtech, Ortenberg, Germany).

[3] = system: pseudotype virus pNL4.3ΔEnvLuc-HXB2; experiment: microbe, parasite or virus in culture; settings: Human immunodeficiency virus 1, HXB2, read-out: IC50 HIV-1 entry
[4] = system: non-B HIV-1 primary clinical isolate #1; experiment: microbe, parasite or virus in culture; settings: Human immunodeficiency virus 1, PBMC, 168 h, read-out: IC50 Clinical isolate #1
[5] = system: non-B HIV-1 primary clinical isolate #2; experiment: microbe, parasite or virus in culture; settings: Human immunodeficiency virus 1, PBMC, 168 h, read-out: IC50 Clinical isolate #2
[6] = system: HIV-1 IIIB; experiment: microbe, parasite or virus in culture; settings: Human immunodeficiency virus 1, IIIB, PBMC, 168 h, read-out: IC50 IIIB
[7] = system: HIV-1 ADA-M; experiment: microbe, parasite or virus in culture; settings: Human immunodeficiency virus 1, PBMC, 168 h, read-out: IC50 ADA-M
[8] = system: HIV-1; experiment: microbe, parasite or virus in culture; assay type: cell-based; settings: for IC50: Human immunodeficiency virus 1, read-out: IC50 anti-HIV-1 activity; for Anti-HIV activity: piceatannol analogues, pseudotype and MTT assay
Text: (§1) Since molecular details of piceatannol interaction with its target(s) are currently not available, we performed a structure-activity relationship (SAR) study with the aim to understand the chemical and pharmacophoric features of piceatannol that are relevant for its anti-HIV activity. Seventeen chemical analogues of piceatannol (molecules 1–17, Figure 6) were designed and retrieved from commercial vendors and from an in-house library of natural products and their derivatives and tested in vitro against HIV-1 entry and HIV-1 infection using the pseudotype and the MTT assay, respectively. […] Besides, the two flavones hispidulin 14 and norartocarpetin 15, and the two styrene derivatives 16 and methyl ferulate 17 were tested.

[9] = Cytotoxicity of piceatannol analogues
Text: as §1

[10] = system: pseudotype virus pNL4.3ΔEnvLuc-HXB2; settings: multi-dosing time assay, 2 h after spinoculation (post-infection)
[11] = system: non-B HIV-1 primary clinical isolate #2; settings: non-B primary clinical isolate #2, 2 h
[12] = system: non-B HIV-1 primary clinical isolate #1; settings: non-B primary clinical isolate #1, 2 h
[13] = system: HIV-1 IIIB; settings: read-out: IC50 IIIB; PBMCs, 7 days, P24 ELISA
[14] = system: HIV-1 ADA-M; settings: read-out: IC50 ADA-M; PBMCs, 7 days, P24 ELISA
[15] = target: T1, CCR5 (Homo sapiens, UniProt P51681); experiment: Binding competition with anti-CCR5 antibody 2D7; settings: anti-CCR5 antibody 2D7, U373-CD4-CCR5 cells
T1 construct: host or cells: U373-CD4-CCR5 cells
Experimental: Binding competition between increasing concentrations of compounds and FITC-conjugated mouse anti-human CD4 clone RPA-4 (Biolegend, Amsterdam, Netherlands), PE-conjugated mouse anti-Human CXCR4 clone 12G5, and PE-conjugated mouse anti-human CCR5 clone 2D7 (BD Pharma, Aalst, Belgium) to U373-CD4-CXCR4 and U373-CD4-CCR5 cells was first tested by flow cytometry (FACSCanto). […] After 1 h of incubation at 4 °C, cells were washed with FACS buffer (1% bovine serum albumin, 0.1% N3Na in PBS, Sigma), and Mean Fluorescence Intensity (MFI) was measured. […] Internalization was stopped after 30 min by addition of NaN3 (0.1%) on ice. Cells were stained with anti-human CXCR4 clone 4G10 (BD, Belgium) or anti-human CCR5 (CD195) clone T21/8, (eBioscience, Asse, Belgium), Near-IR fluorescent reactive dye during 1 h at 4 °C, washed with FACS buffer, and a secondary PE-conjugated goat anti-mouse antibody (Jackson ImmunoResearch, West Grove, PA, USA).

T1 sequence (P51681 whole entry): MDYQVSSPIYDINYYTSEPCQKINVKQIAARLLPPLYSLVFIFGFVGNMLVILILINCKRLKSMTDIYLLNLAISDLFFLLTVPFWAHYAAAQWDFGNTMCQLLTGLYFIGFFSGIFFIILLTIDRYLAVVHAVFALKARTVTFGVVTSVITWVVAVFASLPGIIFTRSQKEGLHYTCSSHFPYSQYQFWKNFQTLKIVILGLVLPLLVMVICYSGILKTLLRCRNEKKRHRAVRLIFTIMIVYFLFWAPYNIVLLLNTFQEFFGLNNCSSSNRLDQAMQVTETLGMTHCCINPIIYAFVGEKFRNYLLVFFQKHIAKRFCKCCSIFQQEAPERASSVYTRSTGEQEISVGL

C[C@@]12OC(=O)C[C@@H]1[C@H]1Oc3c(c(O)cc(O)c3[C@@H]3c4ccc(O)cc4O[C@H](c4ccc(O)cc4)[C@H]3O)C[C@H]1O2 [cassiabrevone]
Inhibition of gp120/CD4 binding [1]: inhibited significantly gp120/CD4 binding activity in a dose-dependent manner | Inhibition of viral fusion [2]: inhibited viral fusion similarly to CE | IC50 [3]: 31000 nM

Cc1cn([C@H]2C[C@H](N=[N+]=[N-])[C@@H](CO)O2)c(=O)[nH]c1=O [AZT, azidothymidine]
IC50 [4]: 6.7 nM | IC50 [5]: > 1000 nM | IC50 [6]: 7.07 nM | IC50 [7]: 7.31 nM

O=c1cc(-c2ccc(O)cc2O)oc2cc(O)cc(O)c12 [Compound 15, norartocarpetin]
IC50 [8]: 39000 ± 5000 nM | CC50 [9]: > 500000 nM

CC(=O)Oc1ccc(/C=C/c2cc(OC(C)=O)cc(OC(C)=O)c2)cc1 [Compound 2]
Anti-HIV activity [8]: inactive

CCCCCCCCCCCCCCCC(=O)O [palmitic acid]
IC50 [3]: 87500 ± 16100 nM

COC(=O)/C=C/c1ccc(O)c(OC)c1 [Compound 17, methyl ferulate]
IC50 [8]: 600000 ± 22000 nM

Cc1nnc(C(=O)NC(C)(C)c2nc(C(=O)NCc3ccc(F)cc3)c(O)c(=O)n2C)o1 [raltegravir, reference compound]
Inhibitory effect when added after infection [10]: inhibited HIV-1 infection

enfuvirtide
IC50 [11]: 1.93 nM | IC50 [12]: 8.25 nM | IC50 [13]: 0.64 nM | IC50 [14]: 0.67 nM

Oc1ccc([C@H]2Oc3cc(O)ccc3[C@@H](c3c(O)cc(O)c4c3O[C@H](c3ccc(O)cc3)[C@H](O)C4)[C@@H]2O)cc1 [guibourtinidol-(4α→8)-epiafzelechin]
Inhibition of gp120/CD4 binding [1]: not guibourtinidol-(4α→8)-epiafzelechin | Inhibition of viral fusion [2]: inhibited viral fusion similarly to CE | IC50 [3]: 42500 nM

CC1(C)CC[C@]2(C(=O)O)CC[C@]3(C)C(=CC[C@@H]4[C@@]5(C)CC[C@H](O)C(C)(C)[C@@H]5CC[C@]43C)[C@@H]2C1 [oleanolic acid]
IC50 [3]: 34900 ± 9090 nM

CCL5: chemokine C-C motif chemokine ligand 5, positive control for binding CCR5
Inhibition of CCR5 binding [15]: inhibited

CC(C)=CCc1c(O)cc(O)c(CC=C(C)C)c1/C=C/c1ccccc1 [Compound 12]
Anti-HIV activity [8]: inactive

O=C1Nc2ccc(Cl)cc2[C@@](C#CC2CC2)(C(F)(F)F)O1 [EFV, efavirenz]
IC50 [4]: > 10 nM | IC50 [5]: > 10 nM | IC50 [6]: 0.1 nM | IC50 [7]: 0.17 nM

COc1cc(/C=C/c2ccc(O)cc2)cc(OC)c1 [Compound 1]
Anti-HIV activity [8]: inactive

O=C1c2c(O)cc(O)cc2OC(c2ccc(O)c(O)c2)C1O (centres unmarked) [taxifolin]
IC50 [3]: 240000 ± 3000 nM
